# “Also recorded” adds a separate entry of the source. Bridge positions count the residues as written; N and C are the ends. Peptide text beside a SMILES is read from it.
# Tests used:
# DU145 cells [1] = assay: MTT cell viability assay, DU145 cells; type: cell-based
# Procedure: (§1) The human esophageal squamous carcinoma cell line KYSE-150 was provided by Dr. Chung S. Yang (Rutgers University, Piscataway, NJ)[41, 42]. DU145, LNCaP, PC-3, K562, U87 and MDA-MB-231 cells were purchased from American Type Culture Collection and cultured with designated medium, supplemented with 10% fetal bovine serum, 100 unit/ml penicillin, and 100 μg/ml streptomycin. Cell viability was determined by MTT assay. Cells were plated at 1,000-1,500 cells per well in a 96-well plate and then treated with indicated amounts of ATAP peptides for 48 hours. Then, 20 μl (5 mg/ml in PBS) MTT [3-(4,5-dimethylthiazol-2-yl)-2,5-diphenyltetrazolium bromide] (Sigma Chemical Co., St. Louis, Mo.) was added to each well. After another 4 hours, 150 μL DMSO was added to dissolve formazan crystals in each well, and the absorbance were recorded at 570 nm.
# [2] = Precipitation / aggregation of peptide in cell culture medium; type: physicochemical; conditions: for Precipitation in normal culture medium: 200 μM peptide added to DU145 cells in normal culture medium, 37 °C, 24 hours incubation, microscopy
# DU145 cells [3] = assay: Live-cell confocal imaging of peptide uptake and mitochondria localization; type: cell-based; conditions: 2 μM Dylight488-labeled peptide, Mito Tracker Red, 50 μM Q-VD-OPh, confocal microscopy
# Procedure: ATAP-iRGD and ATAP-iRGD-M8 peptides were labeled with an amine-reactive DyLight488 fluorophore (Pierce Biotechnology, Rockford, USA) according to the manufacturer's instructions. DU145 cells were cultured in the presence of 2 μM Dylight488-labeled ATAP-iRGD or ATAP-iRGD-M8 plus 50 nM Mito Tracker Red (Molecular Probes Inc., Eugene, OR). 50 μM Q-VD-OPh was added to the culture medium in order to prevent cell apoptosis. Sample images were taken by BioRad 2100 Radiance laser scanning confocal microscope (Bio-Rad Laboratories, Hercules, CA) with a 60×, 1.3NA oil immersion objective (Nikon Instruments Inc., Melville, NY).
# PC-3 xenograft = PC-3 xenograft in nude mice; type: in vivo, NCR nude mice; conditions: tail vein injection once every two days
# Procedure: (§2) Handling of animals was performed in accordance with protocols approved by the Institutional Animal Care and Use Committee (IACUC) of the Ohio State University. Five week-old NCR nude mice (Taconic Farms, Germantown, NY) were implanted subcutaneously in both flanks with 2 ×10^6 DU145 or PC-3 cells. After tumors reached 4 to 7 mm in diameter (about 9~14 days after implantation), the mice were randomly divided into two groups so that both the mean and the variance of the tumor diameters are of no significant difference among the groups prior to treatment. The ATAP-iRGD-M8 peptide was injected through tail vein once every two days during the whole procedure. Tumor volume was measured by a digital caliper (Thermo Fisher Scientific, Waltham, MA). Tumor volume was determined from the orthogonal dimensions (length, width) using the formula: tumor volume = 1/2(length × width^2). According to the IACUC guideline, the experiments will be terminated when tumors reached 1.5 cm in diameter. At the end of experiment, mice were sacrificed and xenografts were removed and weighted. For toxicological evaluation of peptide treatments, mouse body weights were measured every four days. […]
# [4] = test system: kidney, heart, liver, lung and spleen; assay: H&E organ pathology in xenograft nude mice; type: in vivo, NCR nude mice; conditions: xenograft nude mice after peptide treatment, vs control
# Procedure: as §2
# DU145 xenograft = DU145 xenograft in nude mice; type: in vivo, NCR nude mice
# Procedure: as §2
# LNCaP cells = type: cell-based; conditions: 48 h
# Procedure: as §1
# U87 glioblastoma cells = type: cell-based; conditions: 48 h
# Procedure: as §1
# PC-3 cells = type: cell-based; conditions: 48 h
# Procedure: as §1
# [5] = test system: MDA-MB-231 breast adenocarcinoma cells; type: cell-based; conditions: 48 h
# Procedure: as §1
# K562 cells = type: cell-based, human; conditions: 48 h
# Procedure: as §1
# [6] = test system: KYSE-150 esophageal squamous carcinoma cells; type: cell-based, human; conditions: 48 h
# Procedure: as §1
# SV129 mice = assay: Repetitive intravenous injection toxicity in SV129 mice; type: in vivo
# Procedure: For further evaluation of the in vivo toxic effect of ATAP-iRGD, repetitive injections of ATAP-iRGD into the immune intact SV129 mice were conducted.
molecule,measurement,setting,value
CC[C@H](C)[C@H](NC(=O)[C@H](CCCCN)NC(=O)CNC(=O)[C@@H](NC(=O)[C@@H](NC(=O)[C@H](CCC(=O)O)NC(=O)[C@H](CC(C)C)NC(=O)[C@H](Cc1ccccc1)NC(=O)[C@@H](NC(=O)[C@H](CCSC)NC(=O)[C@H](Cc1c[nH]c2ccccc12)NC(=O)CNC(=O)[C@H](CO)NC(=O)[C@H](CCCCN)NC(=O)[C@@H]1CCCN1C(=O)[C@H](CCC(=O)O)NC(=O)[C@H](Cc1ccccc1)NC(=O)[C@@H](N)CCCCN)[C@@H](C)O)C(C)C)[C@@H](C)O)C(=O)N[C@@H](C)C(=O)N[C@@H](CCC(=O)O)C(=O)N[C@@H](CCSC)C(=O)N[C@@H](CC(C)C)C(=O)N[C@@H](CO)C(=O)N[C@@H](CC(C)C)C(=O)N[C@@H](CC(C)C)C(=O)N[C@@H](CC(C)C)C(=O)N[C@@H](CCC(N)=O)C(=O)N[C@@H](Cc1ccc(O)cc1)C(=O)N[C@H]1CSSC[C@@H](C(=O)O)NC(=O)[C@H](CC(=O)O)NC(=O)[C@@H]2CCCN2C(=O)CNC(=O)[C@H](CCCCN)NC(=O)[C@H](CC(=O)O)NC(=O)CNC(=O)[C@H](CCCNC(=N)N)NC1=O [Mutant M4] (H-KFEPKSGWMTFLEVTGKIAEMLSLLLQYCRGDKGPDC-OH; disulfide 29-37),"Cytotoxic activity in DU145 cells, in words","DU145 cells [1]; MTT assay, 48 hours, unconjugated ATAP tested at 0.01 – 100 μM",complete abolishment of the cytotoxic activity
"Ac-KKFEPKSGWMTFLEVTGKIAEMLSLLKQYCRGDKGPDC-NH2 (disulfide 30-38 (inferred)) [ATAP-iRGD-M8, ATAP-iRGD with one more Lys, acetylated and amidated termini]",Precipitation in normal culture medium,[2],no precipitation
same,Concentration at which no precipitation was observed,"[2]; normal cell culture medium, neutral pH, prolonged incubation",above 200 μM
same,Cell uptake and mitochondria localization,DU145 cells [3],clear mitochondria target pattern
same,PC-3 xenograft tumor growth vs saline,PC-3 xenograft,significant suppression of tumor growth
same,"H&E pathology of kidney, heart, liver, lung and spleen",[4],no obvious changes
same,DU145 xenograft volume vs saline,"DU145 xenograft; 21 mg/kg via tail vein once every two days, n=6 treated, n=9 saline",significantly smaller
same,DU-145 xenograft weight at end of experiment,"DU145 xenograft; xenografts dissected and weighted, mean±SEM, P<0.05 (Fig. S2)",significantly suppressed DU-145 tumor growth
"Ac-KFEPKSGWMTFLEVTGKIAEMLSLLKQYCRGDKGPDC-NH2 (disulfide 29-37 (inferred)) [Mutant M7, ATAP-iRGD with acetylated amino terminus and amidated carboxyl terminus]",Precipitation in normal culture medium,[2],precipitate; also recorded: pronounced precipitation
CC[C@H](C)[C@H](NC(=O)[C@H](CCCCN)NC(=O)CNC(=O)[C@@H](NC(=O)[C@@H](NC(=O)[C@H](CCC(=O)O)NC(=O)[C@H](CC(C)C)NC(=O)[C@H](Cc1ccccc1)NC(=O)[C@@H](NC(=O)[C@H](CCSC)NC(=O)[C@H](Cc1c[nH]c2ccccc12)NC(=O)CNC(=O)[C@H](CO)NC(=O)[C@H](CCCCN)NC(=O)[C@@H]1CCCN1C(=O)[C@H](CCC(=O)O)NC(=O)[C@H](Cc1ccccc1)NC(=O)[C@@H](N)CCCCN)[C@@H](C)O)C(C)C)[C@@H](C)O)C(=O)N[C@@H](C)C(=O)N[C@@H](CCC(=O)O)C(=O)N[C@@H](CCSC)C(=O)N[C@@H](CC(C)C)C(=O)N[C@@H](CO)C(=O)N[C@@H](CC(C)C)C(=O)N[C@@H](CC(C)C)C(=O)N[C@@H](CCCCN)C(=O)N[C@@H](CCC(N)=O)C(=O)N[C@@H](Cc1ccc(O)cc1)C(=O)N[C@H]1CSSC[C@@H](C(=O)O)NC(=O)[C@H](CC(=O)O)NC(=O)[C@@H]2CCCN2C(=O)CNC(=O)[C@H](CCCCN)NC(=O)[C@H](CC(=O)O)NC(=O)CNC(=O)[C@H](CCCNC(=N)N)NC1=O [ATAP-iRGD] (H-KFEPKSGWMTFLEVTGKIAEMLSLLKQYCRGDKGPDC-OH; disulfide 29-37),IC50,LNCaP cells,7.1 ± 1.7 µM
same,IC50,U87 glioblastoma cells,10.3 ± 2.6 µM
same,IC50,PC-3 cells,9.2 ± 1.6 µM
same,IC50,[5],5.9 ± 1.1 µM
same,IC50,K562 cells,107 ± 41 µM
same,IC50,[6],4.4 ± 0.5 µM
same,IC50,DU145 cells [1]; 48 h,1.6 ± 0.5 µM
same,Signs of toxicity on repetitive injection,"SV129 mice; immune intact SV129 mice, repetitive intravenous injections",no visible signs or symptoms of toxicity
same,"H&E pathology of kidney, heart, liver, lung and spleen","SV129 mice; mouse, in vivo, iv",no significant pathological abnormalities
